Laboratory results reported in the NIST ThermoML archive (doi:10.1016/j.jct.2006.03.018).
Numbers after ± are expanded uncertainties.

Key:
[1] = xn = mol fraction of the nth substance listed; details: 101 kPa, Liquid
[2] = refractive index (Na D-line) (dimensionless); xn = mol fraction of the nth substance listed; details: 101 kPa, Liquid

CC(C)O [propan-2-ol] + COc1ccccc1
x2 = 0
Details	mass density, 298.15 K [kg/m3]	mass density, 303.15 K [kg/m3]	mass density, 308.15 K [kg/m3]	refractive index, 298.15 K	refractive index, 303.15 K	refractive index, 308.15 K	speed of sound, 298.15 K [m/s]	viscosity, 298.15 K [mPa·s]	viscosity, 303.15 K [mPa·s]	viscosity, 308.15 K [mPa·s]
[1]	781.36 ± 3.8	777.09 ± 3.8	772.75 ± 3.9	–	–	–	1141 ± 41	2.042 ± 0.24	1.755 ± 0.21	1.521 ± 0.18
[2]	–	–	–	1.3745 ± 0.005	1.3721 ± 0.005	1.3702 ± 0.005	–	–	–	–

COc1ccccc1 [anisole] + CCCO
Details	mass density, 298.15 K [kg/m3]	mass density, 303.15 K [kg/m3]	mass density, 308.15 K [kg/m3]	refractive index, 298.15 K	refractive index, 303.15 K	refractive index, 308.15 K	speed of sound, 298.15 K [m/s]	viscosity, 298.15 K [mPa·s]	viscosity, 303.15 K [mPa·s]	viscosity, 308.15 K [mPa·s]
[1], x1 = 0.1036	816.88 ± 3.3	812.68 ± 3.4	808.48 ± 3.4	–	–	–	1223 ± 43	1.564 ± 0.19	1.392 ± 0.17	1.242 ± 0.15
[1], x1 = 0.2003	835.8 ± 3.1	831.49 ± 3.2	827.18 ± 3.2	–	–	–	1232 ± 43	1.352 ± 0.17	1.198 ± 0.15	1.078 ± 0.14
[1], x1 = 0.3055	856.97 ± 2.9	852.54 ± 2.9	848.11 ± 3	–	–	–	1258 ± 44	1.166 ± 0.15	1.094 ± 0.14	0.961 ± 0.12
[1], x1 = 0.4053	876.55 ± 2.7	872.04 ± 2.7	867.53 ± 2.8	–	–	–	1278 ± 44	1.069 ± 0.14	0.98 ± 0.12	0.879 ± 0.11
[1], x1 = 0.5096	897.74 ± 2.4	893.14 ± 2.5	888.55 ± 2.5	–	–	–	1297 ± 45	1.003 ± 0.13	0.921 ± 0.12	0.838 ± 0.11
[1], x1 = 0.6015	915.39 ± 2.2	910.74 ± 2.3	906.1 ± 2.4	–	–	–	1314 ± 45	0.989 ± 0.13	0.903 ± 0.12	0.821 ± 0.11
[1], x1 = 0.7071	934.31 ± 2.1	929.62 ± 2.1	924.94 ± 2.2	–	–	–	1330 ± 45	0.947 ± 0.12	0.859 ± 0.11	0.802 ± 0.11
[1], x1 = 0.8023	952.23 ± 1.9	947.51 ± 1.9	942.78 ± 2	–	–	–	1350 ± 46	0.943 ± 0.12	0.861 ± 0.11	0.795 ± 0.11
[1], x1 = 0.8939	970.23 ± 1.7	965.5 ± 1.8	960.74 ± 1.8	–	–	–	1370 ± 46	0.932 ± 0.12	0.869 ± 0.11	0.792 ± 0.1
[1], x1 = 1	989.15 ± 1.6	984.45 ± 1.6	979.73 ± 1.7	–	–	–	1412 ± 47	0.988 ± 0.13	0.913 ± 0.12	0.854 ± 0.11
[2], x1 = 0.1036	–	–	–	1.4013 ± 0.005	1.3989 ± 0.005	1.3966 ± 0.005	–	–	–	–
[2], x1 = 0.2003	–	–	–	1.4176 ± 0.005	1.4153 ± 0.005	1.4129 ± 0.005	–	–	–	–
[2], x1 = 0.3055	–	–	–	1.4284 ± 0.005	1.4314 ± 0.005	1.4287 ± 0.005	–	–	–	–
[2], x1 = 0.4053	–	–	–	1.4459 ± 0.005	1.4458 ± 0.005	1.4426 ± 0.005	–	–	–	–
[2], x1 = 0.5096	–	–	–	1.461 ± 0.005	1.4578 ± 0.005	1.4542 ± 0.005	–	–	–	–
[2], x1 = 0.6015	–	–	–	1.4737 ± 0.005	1.4704 ± 0.005	1.4673 ± 0.005	–	–	–	–
[2], x1 = 0.7071	–	–	–	1.4864 ± 0.005	1.482 ± 0.005	1.4793 ± 0.005	–	–	–	–
[2], x1 = 0.8023	–	–	–	1.4955 ± 0.005	1.493 ± 0.005	1.4897 ± 0.005	–	–	–	–
[2], x1 = 0.8939	–	–	–	1.5046 ± 0.005	1.5014 ± 0.005	1.499 ± 0.005	–	–	–	–
[2], x1 = 1	–	–	–	1.5137 ± 0.005	1.5113 ± 0.005	1.5088 ± 0.005	–	–	–	–

COc1ccccc1 [anisole] + CC(C)CCO
x1 = 1
Details	mass density, 298.15 K [kg/m3]	mass density, 303.15 K [kg/m3]	mass density, 308.15 K [kg/m3]	refractive index, 298.15 K	refractive index, 303.15 K	refractive index, 308.15 K	speed of sound, 298.15 K [m/s]	viscosity, 298.15 K [mPa·s]	viscosity, 303.15 K [mPa·s]	viscosity, 308.15 K [mPa·s]
[1]	989.15 ± 2.7	984.45 ± 2.8	979.73 ± 2.9	–	–	–	1412 ± 47	0.988 ± 0.13	0.913 ± 0.12	0.854
[2]	–	–	–	1.5137 ± 0.0025	1.5113 ± 0.0025	1.5088 ± 0.02	–	–	–	–

COc1ccccc1 [anisole] + CCCCO
Details	mass density, 298.15 K [kg/m3]	mass density, 303.15 K [kg/m3]	mass density, 308.15 K [kg/m3]	refractive index, 298.15 K	refractive index, 303.15 K	refractive index, 308.15 K	speed of sound, 298.15 K [m/s]	viscosity, 298.15 K [mPa·s]	viscosity, 303.15 K [mPa·s]	viscosity, 308.15 K [mPa·s]
[1], x1 = 0.1064	824.95 ± 13	820.92 ± 13	816.89 ± 13	–	–	–	1258 ± 44	2.015 ± 0.24	1.778 ± 0.21	1.576 ± 0.19
[1], x1 = 0.1923	841.43 ± 12	837.28 ± 12	833.12 ± 12	–	–	–	1276 ± 44	1.702 ± 0.2	1.511 ± 0.18	1.352 ± 0.17
[1], x1 = 0.2988	861.78 ± 11	857.49 ± 11	853.21 ± 12	–	–	–	1298 ± 45	1.409 ± 0.17	1.261 ± 0.16	1.136 ± 0.14
[1], x1 = 0.3972	880.06 ± 10	875.69 ± 10	871.31 ± 11	–	–	–	1314 ± 45	1.285 ± 0.16	1.145 ± 0.14	1.051 ± 0.13
[1], x1 = 0.493	897.25 ± 9.4	892.77 ± 9.6	888.3 ± 9.8	–	–	–	1334 ± 45	1.129 ± 0.14	1.041 ± 0.13	0.939 ± 0.12
[1], x1 = 0.5968	922.83 ± 8.1	918.26 ± 8.3	913.66 ± 8.6	–	–	–	1347 ± 46	1.063 ± 0.14	0.968 ± 0.12	0.886 ± 0.12
[1], x1 = 0.7834	930.28 ± 25	925.7 ± 25	921.11 ± 25	–	–	–	1364 ± 46	0.985 ± 0.13	0.907 ± 0.12	0.844 ± 0.11
[1], x1 = 0.8332	957.86 ± 6.4	953.17 ± 6.7	948.47 ± 6.9	–	–	–	1376 ± 47	0.968 ± 0.12	0.893 ± 0.12	0.824 ± 0.11
[1], x1 = 0.892	969.05 ± 5.9	964.35 ± 6.1	959.64 ± 6.4	–	–	–	1390 ± 47	0.962 ± 0.12	0.884 ± 0.12	0.822 ± 0.11
[1], x1 = 1	989.15 ± 5	984.45 ± 5.2	979.73 ± 5.4	–	–	–	1412 ± 47	0.988 ± 0.13	0.913 ± 0.12	0.854 ± 0.11
[2], x1 = 0.1064	–	–	–	1.4108 ± 0.005	1.4069 ± 0.005	1.4031 ± 0.005	–	–	–	–
[2], x1 = 0.1923	–	–	–	1.4221 ± 0.005	1.4197 ± 0.005	1.4173 ± 0.005	–	–	–	–
[2], x1 = 0.2988	–	–	–	1.4354 ± 0.005	1.4332 ± 0.005	1.4307 ± 0.005	–	–	–	–
[2], x1 = 0.3972	–	–	–	1.4473 ± 0.005	1.4449 ± 0.005	1.4421 ± 0.005	–	–	–	–
[2], x1 = 0.493	–	–	–	1.4586 ± 0.005	1.4563 ± 0.005	1.4535 ± 0.005	–	–	–	–
[2], x1 = 0.5968	–	–	–	1.4719 ± 0.02	1.4679 ± 0.02	1.4651 ± 0.02	–	–	–	–
[2], x1 = 0.7834	–	–	–	1.4848 ± 0.02	1.4822 ± 0.02	1.4795 ± 0.02	–	–	–	–
[2], x1 = 0.8332	–	–	–	1.4911 ± 0.005	1.4888 ± 0.005	1.4858 ± 0.005	–	–	–	–
[2], x1 = 0.892	–	–	–	1.5027 ± 0.005	1.5005 ± 0.005	1.4966 ± 0.005	–	–	–	–
[2], x1 = 1	–	–	–	1.5137 ± 0.005	1.5113 ± 0.005	1.5088 ± 0.005	–	–	–	–

CCCO [propan-1-ol] + COc1ccccc1
x2 = 0
Details	mass density, 298.15 K [kg/m3]	mass density, 303.15 K [kg/m3]	mass density, 308.15 K [kg/m3]	refractive index, 298.15 K	refractive index, 303.15 K	refractive index, 308.15 K	speed of sound, 298.15 K [m/s]	viscosity, 298.15 K [mPa·s]	viscosity, 303.15 K [mPa·s]	viscosity, 308.15 K [mPa·s]
[1]	799.96 ± 3.5	795.93 ± 3.6	791.86 ± 3.6	–	–	–	1206 ± 42	1.792 ± 0.21	1.706 ± 0.2	1.518 ± 0.18
[2]	–	–	–	1.3826 ± 0.005	1.3808 ± 0.005	1.3782 ± 0.005	–	–	–	–
